In US11479532B2, “5-aminolevulinate synthase inhibitors and methods of use thereof” (UNIVERSITY OF SOUTH FLORIDA, priority 2017, dated 2022):

Legend:
[1] = target: 5-aminolevulinate synthase (ALAS) (Mus musculus (Mouse), UniProt P08680); test: ALAS activity; format: biochemical
Description: ALAS activity was determined according the article, Stojanovski, B. M., Breydo, L., Hunter, G. A., Uversky, V. N, Ferreira G. C. (2014) Biochim. Biophys. Acta 1844, 2145-2154, which is hereby incorporated by reference in its entirety.

ALAS = details: background, reference [3]; read-out: IC50 of known ALAS inhibitor; cited from earlier work

5-aminolevulinate synthase (ALAS), sequence (P08680 50-587): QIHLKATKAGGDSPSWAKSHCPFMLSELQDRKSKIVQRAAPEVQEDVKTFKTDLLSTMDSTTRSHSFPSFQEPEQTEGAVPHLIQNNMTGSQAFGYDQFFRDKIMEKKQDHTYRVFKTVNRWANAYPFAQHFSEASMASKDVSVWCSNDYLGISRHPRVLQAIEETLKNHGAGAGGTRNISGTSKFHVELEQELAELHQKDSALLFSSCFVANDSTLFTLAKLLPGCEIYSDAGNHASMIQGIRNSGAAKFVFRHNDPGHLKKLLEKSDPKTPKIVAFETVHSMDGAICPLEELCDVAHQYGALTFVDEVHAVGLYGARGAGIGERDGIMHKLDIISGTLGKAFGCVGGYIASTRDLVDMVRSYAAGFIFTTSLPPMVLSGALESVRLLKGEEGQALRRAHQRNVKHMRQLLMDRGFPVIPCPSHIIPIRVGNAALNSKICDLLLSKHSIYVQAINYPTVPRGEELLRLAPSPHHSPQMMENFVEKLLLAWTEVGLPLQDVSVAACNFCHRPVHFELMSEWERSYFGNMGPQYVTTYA

| SMILES | IC50 [1] | IC50 (ALAS) |
| --- | --- | --- |
| CC1(C)CCN(c2ccc(C(=O)NS(=O)(=O)c3ccc(CN(CCSc4ccccc4)Cc4ccc(S(N)(=O)=O)cc4)cc3)cc2)CC1 [SZ10TA2] | 43 ± 5.8 µM |  |
| COc1cccc(CN(CCSc2ccccc2)Cc2ccc(S(=O)(=O)NC(=O)c3cccc4ccccc34)cc2)c1 [SZ17TA7] | 50 ± 6.1 µM |  |
| NC(C(=O)O)C(=O)O [aminomalonate] |  | 7 µM |

Second part, led by results:

| IC50 [1] | SMILES | IC50 (ALAS) |
| --- | --- | --- |
| 8.6 ± 0.9 µM | Cn1cc(C(=O)C2CCCCC2)c2cc(C(=O)NS(=O)(=O)c3ccc(CN(CCSc4ccccc4)Cc4ccc(S(N)(=O)=O)cc4)cc3)ccc21 [SZ10TA40] |  |
| 19.3 ± 2.7 µM | Cn1cc(C(=O)C2CCCCC2)c2cc(C(=O)NS(=O)(=O)c3ccc(-c4ccc(C(C)(C)C)cc4)cc3)ccc21 [SZ11TA40] |  |
| 8.6 ± 0.9 µM | O=C(NS(=O)(=O)c1ccc(CNc2cccc([N+](=O)[O-])c2)cc1)c1ccc(CN2C(=O)C(c3ccc(F)cc3F)=C(c3ccc(F)cc3F)C2=O)cc1 [SZ12TA42] |  |
| 31.4 ± 1.8 µM | COc1ccc(Cc2ccc(C(=O)NS(=O)(=O)c3ccc(-c4ccc(Oc5ccccc5)cc4)cc3)cc2)c(OC)c1OC [SZ35TA24] |  |
